# Results: patent US9410939B2, “Methods for predicting mammalian embryo viability” (Cambridge Enterprise Limited, priority 2011, dated 2016)
# Marks after values point to notes of the source that are not given here.
# How the values were obtained:
# Assay type in all cases: cell-based
# fertilized mouse eggs [1] = experiment: Formation and maintenance of the fertilization cone (FC) in inhibitor-treated zygotes
# Method: (§1) F1 (C57B16×CBA) mouse females were superovulated and oocytes and zygotes recovered as described previously^44. Parthenogenetic activation was performed by incubating eggs for 4 hrs in M2 medium without Ca^2+/Mg^2+ supplemented with 10 mM SrCl2. Germinal vesicle (GV) oocytes were isolated from ovaries to M2 medium supplemented with 150 μg/ml dibutyryl cyclic AMP (dbcAMP). Epididymal sperm was isolated from F1 males and capacitated in 0.5 ml of fertilization medium with 4 mg/ml BSA^45. Embryos were imaged in KSOM medium as described previously^44. In some experiments prior to imaging embryos were pre-incubated for 20 min with 30 μM BAPTA-AM (to chelate Ca^2+), 5 μg/ml nocodazole (to depolimerize microtubules), 2 μg/ml cytochalasin D (to depolimerize F-actin), 10 μM taxol (to stabilize microtubules) or 100 nM jasplakinolide (to stabilize F-actin) and then transferred to pure KSOM (BAPTA-treated embryos) or to KSOM containing the respective drug (rest of the treated embryos). Embryos treated with ML-7 (to inhibit myosin light chain kinase (MLCK) and therefore myosin II activation^46) were pre-incubated with 25 μM ML-7 for 20 mins and then imaged in a dish containing KSOM with 25 μM ML-7 without a mineral oil overlay which would have absorbed ML-7.
# (§2) In most experiments zygotes were imaged in a single plane under an inverted confocal microscope (Zeiss LSM 510 Meta) at 37.5° C. and 5% CO2. DIC images were captured every 10 s using a 633 nm HeNe laser. To measure free Ca^2+ ion concentration, embryos were pre-incubated for 20 min in 5 μM FuraRed-AM (Invitrogen) and FuraRed and DIC images were obtained simultaneously with a 488 nm argon laser. In experiments in which correlations between cytoplasmic movements and developmental potential of the embryos were examined zygotes were imaged in a single plane in transmitted light under standard non-confocal microscopes (Zeiss Axiovert or Deltavision) every 10 s for 2.5 hrs. In experiments in which cytoplasmic movements in the cortex and central parts of zygotes were compared embryos were imaged on the Deltavision microscope in 11 planes every 6 μm, every 10 s for 3 hrs. Intensity of FuraRed fluorescence was measured using ImageJ software. Images were analyzed using custom written software in MATLAB (The Mathworks Inc., Natick, Mass., USA) using algorithms adapted from MatPIV v1.6.1^47. The algorithm was based on that used in PIV, a standard analysis technique used extensively in fluid dynamics^21-24 that involves cross-correlating image sub-regions between sequential pairs of images. In the PIV analysis each image was divided into square interrogation regions and the cross-correlation coefficient distribution was calculated within a larger region in the next image in the sequence. The peak of the cross-correlation coefficient distribution gave the most likely location in the second image of the material in the interrogation region in the first image. This was then used to calculate the displacement vector over the time between images (FIG. 1A). As the displacement of the pattern of contrast of an area of pixels is being measured over many pixels it is possible to accurately measure sub-pixel movements with this technique^22, 24, 48.
# fertilized mouse eggs [2] = experiment: PIV analysis of cytoplasmic movements (speed-peaks, after-movements, basal speed) in inhibitor-treated zygotes; conditions: for Mean amplitude of after-movements +/- s.d. / Mean amplitude of speed-peaks +/- s.d.: inhibitor-treated zygotes; for decrease in basal speed: vs control zygotes
# Method: as §1, §2
# (§3) DIC images of fertilized eggs were analyzed using custom written software in MATLAB (The Mathworks Inc., Natick, Mass., USA) using algorithms adapted from MatPIV v1.6.150. The algorithm was based on that used in PIV, a standard analysis technique that involves the use of pattern matching techniques based on cross-correlating sub-regions between sequential pairs of images (see Methods in the main text and FIG. 1a). To calculate a displacement for each analysed interrogation region two subsequent PIV iterations were used. First, the displacement was calculated for a larger interrogation area and then it was used as an estimate of where to centre the search area for the next iteration with a smaller interrogation region. […]
# [3] = system: in vivo fertilized mouse eggs; experiment: Completion of meiosis (2PB extrusion) under Ca2+ chelation and cytoskeleton inhibitors
# Method: as §1, §2
# mouse zygotes = experiment: Immunostaining of microtubules and actomyosin in treated zygotes
# Method: To examine a correlation between cytoplasmic movements and developmental potential of the embryos, 10 μl of capacitated sperm suspension was added to eggs surrounded by cumulus cells and then gametes were co-incubated for 2 hrs. In experiments testing specificity of inhibitors or involving live imaging of actin and myosin, prior to fertilization eggs were treated shortly with acidic Tyrode's solution (pH=2.5) to remove zonas, then were mixed with approximately 1 μl of capacitated sperm suspension and incubated together for 30 min. In both cases fertilization was performed in fertilization medium supplemented with 4 mg/ml BSA^45. Embryos at 2-cell stage were transfer to oviducts of recipient F1 females mated with vasectomised males on 0.5 dpc. They were dissected on 6.5 dpc or 19.5 dpc.
# Embryos were fixed in 4% PFA and permeabilised as described before^41. Embryos were scanned using an inverted confocal microscope (Zeiss LSM 510 Meta).
# In more detail, embryos were fixed in 4% PFA (30 min, RT or 4° C. overnight), permeabilised with 0.2-0.5% Triton-X100 (30 min, RT) and blocked with 3% BSA or 10% FCS. Subsequently, they were stained with following antibodies and dyes: […]
# mouse eggs [4] = experiment: Cytoplasmic movements and Ca2+ transients in eggs parthenogenetically activated with SrCl2
# Method: as §1
# as §2, with “The peak of the cross-correlation coefficient distribution gave the most likely location in the second image of the material in the interrogation region in the first image. This was then used to calculate the displacement vector over the time between images (FIG. 1A).” left out
# as §3, with “The algorithm was based on that used in PIV, a standard analysis technique that involves the use of pattern matching techniques based on cross-correlating sub-regions between sequential pairs of images (see Methods in the main text and FIG. 1a).” left out
# mouse eggs [5] = experiment: Cytoplasmic movements in eggs injected with heat-inactivated sperm heads (ICSI) and activated with SrCl2; conditions: for Mean amplitude of after-movements +/- s.d. / Mean amplitude of speed-peaks +/- s.d.: ICSI with the inactivated sperm and SrCl2 activation
# Method: as §1, §2
# ICSI was carried out as previously described^49 using Leica micromanipulators and Leica inverted microscope. In some experiments heat-inactivated sperm (30 min in 60° C.) was used instead of freshly isolated sperm. The sperm suspension was mixed with M2 medium containing 10% polyvinylpyrrolidone (PVP, Mr=360 kDa). Sperm were delivered into the oocytes' cytosol using a piezo micropipette-driving unit (IntraCel PMAS-CT150, PrimeTech, Japan).
# [6] = treated zygotes, control zygotes 9.0 +/- 1.9
# [7] = Stage 1 prolonged, activation with SrCl2
Structure (SMILES),Zygotes that extruded 2PB (%) [3],Zygotes that failed to extrude 2PB (%) [3],effect on formation and/or maintenance of the FCs (fertilized mouse eggs [1]),effect on speed-peaks (fertilized mouse eggs [2]),Mean amplitude of after-movements +/- s.d. (fertilized mouse eggs [2]; Stage 1),Mean amplitude of speed-peaks +/- s.d. (fertilized mouse eggs [2]; Stage 1),Mean amplitude of after-movements +/- s.d. (fertilized mouse eggs [2]; Stage 2),Mean amplitude of speed-peaks +/- s.d. (fertilized mouse eggs [2]; Stage 2),Mean amplitude of after-movements +/- s.d. (fertilized mouse eggs [2]; Stage 3),Mean amplitude of speed-peaks +/- s.d. (fertilized mouse eggs [2]; Stage 3),Mean basal cytoplasmic speed +/- s.d. (fertilized mouse eggs [2]; [6]),other results
O=S(=O)(c1cccc2c(I)cccc12)N1CCCNCC1 [ML-7],(69.2) %,(30.8) %,,,,,,,,,,"embryos in which FCs were present (fertilized mouse eggs [1]; 10/17 embryos): 58.8%; zygotes in which cytoplasmic speed oscillations were blocked (fertilized mouse eggs [2]; 16/17 zygotes): 94.1%; Mean basal cytoplasmic speed +/- s.d. (fertilized mouse eggs [2]; A - mean basal velocity before M-phase/interphase transition): A. 5.1 +/− 1.3*^,‡ nm/s; Mean basal cytoplasmic speed +/- s.d. (fertilized mouse eggs [2]; B - mean basal velocity after M-phase/interphase transition): B. 8.3 +/− 1.1^†,‡ nm/s"
"C/C1=C\[C@H](C)C[C@H](C)OC(=O)C[C@H](c2ccc(O)cc2)NC(=O)[C@@H](Cc2c(Br)[nH]c3ccccc23)N(C)C(=O)[C@H](C)NC(=O)[C@@H](C)C1 [Jasplakinolide, jasplakinolide]",,(100) %,still permitted formation and/or maintenance of FCs,amplitudes were significantly lower than in controls,5.2 ± 2.1 nm/s,20.9 ± 10.1 nm/s,4.2 +/− 1.9^|| nm/s,14.5 +/− 8.3^|| nm/s,3.8 +/− 2.8^|| nm/s,10.8 ± 7.6 nm/s,3.0 +/− 0.4* nm/s,decrease in basal speed (fertilized mouse eggs [2]): ~3 fold; effect on cytoskeleton by staining (mouse zygotes): formation of a thicker cortical layer of actin
"COC(=O)Nc1nc2ccc(C(=O)c3cccs3)cc2[nH]1 [Nocodazole, nocodazole]",(41.7) %,(58.3) %,had no effect upon either formation and/or maintenance of the FCs,neither nocodazole-induced depolymerisation nor taxol-induced stabilisation of microtubules inhibited speed-peaks,11.1 ± 3.9 nm/s,20.6 ± 11.2 nm/s,16.6 +/− 6.8^¶ nm/s,35.2 +/− 19.3^§ nm/s,21.5 +/− 6.7^|| nm/s,10.4 ± 8.5 nm/s,11.0 +/− 1.5* nm/s,
"CC(=O)O[C@H]1C(=O)[C@@]2(C)[C@H]([C@H](OC(=O)c3ccccc3)[C@]3(O)C[C@H](OC(=O)[C@H](O)[C@@H](NC(=O)c4ccccc4)c4ccccc4)C(C)=C1C3(C)C)[C@]1(OC(C)=O)CO[C@@H]1C[C@@H]2O [Taxol, taxol]",,(100) %,had no effect upon either formation and/or maintenance of the FCs,neither nocodazole-induced depolymerisation nor taxol-induced stabilisation of microtubules inhibited speed-peaks,7.9 ± 4.3 nm/s,18.0 +/− 5.0^¶ nm/s,11.1 ± 5.3 nm/s,29.9 +/− 21.0^¶ nm/s,14.3 +/− 5.8^¶ nm/s,11.5 ± 6.5 nm/s,7.7 +/− 1.7^§ nm/s,
"CC(=O)OCOC(=O)CN(CC(=O)OCOC(C)=O)c1ccccc1OCCOc1ccccc1N(CC(=O)OCOC(C)=O)CC(=O)OCOC(C)=O [BAPTA, BAPTA-AM]",(66.7) %,(33.3) %,,suppressed high amplitude speed-peaks,,,,,,,15.3 +/− 3.3* nm/s,"elevation of mean basal cytoplasmic speed (fertilized mouse eggs [2]; more than controls, 21 fertilized eggs): 1.7 fold; effect on cytoskeleton by staining (mouse zygotes): disrupted microtubules"
"C=C1[C@@H](C)[C@H]2[C@H](Cc3ccccc3)NC(=O)[C@]23[C@H](OC(C)=O)/C=C/[C@@](C)(O)C(=O)[C@@H](C)C/C=C/[C@H]3[C@@H]1O [Cytochalasin D, cytochalasin D]",,(100) %,,dramatically abolished speed-peaks,,,,,,,3.1 +/− 0.6* nm/s,"zygotes in which FCs did not form (fertilized mouse eggs [1]; 20/21 zygotes): 95%; zygotes in which unfocused, low-amplitude speed-peaks were recorded (fertilized mouse eggs [2]; 2 out of 21 analyzed zygotes): 9.5%; decrease in basal speed (fertilized mouse eggs [2]): ~3 fold"
[Cl-].[Cl-].[Sr+2] [SrCl2],,,,,,,,,,,,"delay of speed peaks with respect to the onset of the Ca2+ transient (mouse eggs [4]): 10 to 30 s; Ca2+ transients accompanied by speed peaks (mouse eggs [4]; 133/444 transients, n=47 eggs): 30%; Ca2+ transients with after-movements present (mouse eggs [4]; 341/444 transients): 76.8%; Mean amplitude of after-movements +/- s.d. (mouse eggs [4]; [7]): 7.7 +/− 2.9^#,** nm/s; Mean amplitude of speed-peaks +/- s.d. (mouse eggs [4]; [7]): 7.4 +/− 4.0^#,||,¶ nm/s; lag of speed-peaks and FC pulsations after peaks of Ca2+ transients (mouse eggs [5]): 10 to 30 s; Ca2+ transients accompanied by speed-peaks (mouse eggs [5]; 48/79 transients, Stage 2, FCs present, n=25): 60.8%; Mean amplitude of after-movements +/- s.d. (mouse eggs [5]; Stage 1): 7.9 ± 3.0 nm/s; Mean amplitude of speed-peaks +/- s.d. (mouse eggs [5]; Stage 1): 8.8 +/− 8.8^|| nm/s; Mean amplitude of after-movements +/- s.d. (mouse eggs [5]; Stage 2): 10.1 +/− 3.5^#,‡‡ nm/s; Mean amplitude of speed-peaks +/- s.d. (mouse eggs [5]; Stage 2): 8.6 +/− 5.4^# nm/s; Mean amplitude of after-movements +/- s.d. (mouse eggs [5]; Stage 3): 13.0 ± 7.0 nm/s; Mean amplitude of speed-peaks +/- s.d. (mouse eggs [5]; Stage 3): 7.1 +/− 4.3^# nm/s"
